Experimental data from patent US20260042753A1 (Merck Patent GmbH, priority 2019, published 2026).
Like-named read-outs stand apart in the source and are kept apart here.

Key:
[1] = target: c-Kit(V654A) (Homo sapiens, UniProt P10721, V654A); experiment: c-Kit(V654A) assay; format: biochemical
Outline: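 Radiometric filter-binding read-out: after 3% phosphoric acid stop, peptide-incorporated 33P on filtermat scintillation-counted. Enzyme: human c-Kit V654A, residues 544–end, N-terminal GST fusion.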

[2] = target: mutant cKIT (560-576 and V654A) in GIST430/654 cell line (Homo sapiens (Human), UniProt P10721, DEL560-576/V654A); experiment: Cellular testing of cKIT mutant inhibitors: phospho-Y307-cKIT Luminex assay in GIST430/654 cells; format: cell-based; conditions: read-out: GIST 430/654 IC50
Chain of mutant cKIT (560-576 and V654A) in GIST430/654 cell line (P10721 other isoform, or with tags, fused parts or gaps V654A/del 1-25/del 560-576 limits assumed): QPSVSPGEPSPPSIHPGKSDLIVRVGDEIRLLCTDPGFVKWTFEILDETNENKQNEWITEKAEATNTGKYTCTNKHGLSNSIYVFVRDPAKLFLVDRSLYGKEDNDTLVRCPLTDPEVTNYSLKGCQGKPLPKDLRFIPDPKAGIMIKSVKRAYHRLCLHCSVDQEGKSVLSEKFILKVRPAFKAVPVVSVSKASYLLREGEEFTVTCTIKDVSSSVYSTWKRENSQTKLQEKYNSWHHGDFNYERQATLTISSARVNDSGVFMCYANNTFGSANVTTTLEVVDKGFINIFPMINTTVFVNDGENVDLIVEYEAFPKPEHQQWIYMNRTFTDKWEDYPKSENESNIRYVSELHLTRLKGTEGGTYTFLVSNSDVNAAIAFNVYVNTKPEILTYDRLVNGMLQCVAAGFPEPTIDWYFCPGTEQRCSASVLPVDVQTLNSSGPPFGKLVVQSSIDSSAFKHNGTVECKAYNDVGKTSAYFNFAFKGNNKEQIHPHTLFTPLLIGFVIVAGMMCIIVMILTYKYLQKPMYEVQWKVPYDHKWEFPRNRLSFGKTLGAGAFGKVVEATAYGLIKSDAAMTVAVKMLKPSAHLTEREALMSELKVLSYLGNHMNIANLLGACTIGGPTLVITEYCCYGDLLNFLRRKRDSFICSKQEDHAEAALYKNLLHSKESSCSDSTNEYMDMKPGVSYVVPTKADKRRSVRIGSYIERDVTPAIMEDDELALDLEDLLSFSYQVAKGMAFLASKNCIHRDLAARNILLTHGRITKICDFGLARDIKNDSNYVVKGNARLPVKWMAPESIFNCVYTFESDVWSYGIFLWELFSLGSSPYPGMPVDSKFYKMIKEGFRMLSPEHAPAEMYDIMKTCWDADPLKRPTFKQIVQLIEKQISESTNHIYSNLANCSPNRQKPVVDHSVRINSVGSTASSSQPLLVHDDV
Outline: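 GIST430/654 cells carrying constitutively active cKIT (Δ560-576/V654A) were grown with 100 nM imatinib, then treated with serially diluted compound for 45 min. Lysates were captured on anti-total-cKIT Luminex beads overnight at 4 °C and probed for phospho-Y307-cKIT. IC50 was fitted from percent of 0.3% DMSO control.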

[3] = Table 1, cKIT autophosphorylation, compounds 45 min
[4] = Table 2, corresponding triazole derivatives

| IC50 ([1]; Table 1, 200 μM ATP) [µM] | IC50 [2, 3] [µM] | IC50 [1, 4] [µM] | IC50 [2, 4] [µM] | SMILES |
| --- | --- | --- | --- | --- |
| 0.002 | 0.039 |  |  | COCCOc1cc2[nH]nc(-c3cc(-c4ccc(C(=O)N5CC(C#N)C5)cc4)no3)c2cc1F [A28, 1-(4-{5-[5-fluoro-6-(2-methoxyethoxy)-1H-indazol-3-yl]-1,2-oxazol-3-yl}benzoyl)azetidine-3-carbonitrile] |
| 0.0021 | 0.081 |  |  | COCCOc1cc2[nH]nc(-c3cc(-c4ccc(C(=O)N5C[C@H]6COC[C@H]6C5)c(C)c4)no3)c2cc1F [A70, (4-{5-[5-fluoro-6-(2-methoxy-ethoxy)-1H-indazol-3-yl]-isoxazol-3-yl}-2-methyl-phenyl)-(cis)-tetrahydro-furo[3,4-c]pyrrol-5-yl-methanone] |
| 0.0015 | 0.13 |  |  | COCCOc1cc2[nH]nc(-c3cc(-c4ccc(C(=O)NCC(C)(C)N5CCOCC5)cc4)no3)c2cc1F [A164, 4-{5-[5-fluoro-6-(2-methoxyethoxy)-1H-indazol-3-yl]-1,2-oxazol-3-yl}-N-[2-methyl-2-(morpholin-4-yl)propyl]benzamide] |
| 0.0012 | 0.059 |  |  | COCCOc1cc2[nH]nc(-c3cc(-c4ccc(C(=O)N5CCN(C6COC6)CC5)cc4)no3)c2cc1F [A45, (4-{5-[5-fluoro-6-(2-methoxy-ethoxy)-1H-indazol-3-yl]-isoxazol-3-yl}-phenyl)-(4-oxetan-3-yl-piperazin-1-yl)-methanone] |
| 0.57 | 0.47 |  |  | COCCOc1cc2[nH]nc(-c3cc(-c4ccc(C(=O)N5CCN(C(CO)CO)CC5)cc4)no3)c2cc1F [A228, 2-[4-(4-{5-[5-fluoro-6-(2-methoxyethoxy)-1H-indazol-3-yl]-1,2-oxazol-3-yl}benzoyl)piperazin-1-yl]propane-1,3-diol] |
| 0.00046 | 0.032 |  |  | COCCOc1cc2[nH]nc(-c3cc(-c4ccc(C(=O)N5CCC6(COC6)C5)cc4)no3)c2cc1F [A158, 5-fluoro-6-(2-methoxyethoxy)-3-[3-(4-{2-oxa-6-azaspiro[3.4]octane-6-carbonyl}phenyl)-1,2-oxazol-5-yl]-1H-indazole] |
| 0.0011 | 0.38 |  |  | COCCOc1cc2[nH]nc(-c3cc(-c4ccc(C(=O)N5C[C@H]6CNC[C@H]6C5)cc4)no3)c2cc1F [A223, 3-(3-{4-[(cis)-octahydropyrrolo[3,4-c]pyrrole-2-carbonyl]phenyl}-1,2-oxazol-5-yl)-5-fluoro-6-(2-methoxyethoxy)-1H-indazole] |
|  |  | 0.0043 | 0.23 | COCCOc1cc2[nH]nc(-c3cn(-c4ccc(C(=O)N5CCOC[C@H]5C)cc4)nn3)c2cc1F [reference compound] |
| 0.018 | 0.86 |  |  | COCCOc1cc2[nH]nc(-c3cc(-c4ccc(Oc5ccccn5)cc4)no3)c2cc1F [A143, 5-fluoro-6-(2-methoxyethoxy)-3-{3-[4-(pyridin-2-yloxy)phenyl]-1,2-oxazol-5-yl}-1H-indazole] |
| 0.0043 | 0.09 |  |  | COCCOc1cc2[nH]nc(-c3cc(-c4ccc(C(=O)N5C[C@H]6COC[C@H]6C5)c(F)c4)no3)c2cc1F [A71, (2-fluoro-4-{5-[5-fluoro-6-(2-methoxy-ethoxy)-1H-indazol-3-yl]-isoxazol-3-yl}-phenyl)-(cis)-tetrahydro-furo[3,4-c]pyrrol-5-yl-methanone] |
| 0.053 | 0.39 |  |  | COCCOc1cc2[nH]nc(-c3cc(-c4nc(C(=O)N(C)C)cs4)no3)c2cc1F [A93, 2-{5-[5-fluoro-6-(2-methoxyethoxy)-1H-indazol-3-yl]-1,2-oxazol-3-yl}-N,N-dimethyl-1,3-thiazole-4-carboxamide] |
| 0.006 | 0.21 |  |  | COCCOc1cc2[nH]nc(-c3cc(-c4ccc(C(=O)N5CC(F)C5)cn4)no3)c2cc1F [A81, 5-fluoro-3-{3-[5-(3-fluoroazetidine-1-carbonyl)pyridin-2-yl]-1,2-oxazol-5-yl}-6-(2-methoxyethoxy)-1H-indazole] |
| 0.00044 | 0.028 |  |  | COCCOc1cc2[nH]nc(-c3cc(-c4ccc(C(=O)N5CCC6(CC5)COC6)cc4)no3)c2cc1F [A60, 7-(4-{5-[5-fluoro-6-(2-methoxyethoxy)-1H-indazol-3-yl]-1,2-oxazol-3-yl}benzoyl)-2-oxa-7-azaspiro[3.5]nonane] |
| 0.0011 | 0.25 |  |  | O=C(c1ccc(-c2cc(-c3n[nH]c4cc(OCCO)c(F)cc34)on2)cc1)N1CCNCC1 [A224, 2-[(5-fluoro-3-{3-[4-(piperazine-1-carbonyl)phenyl]-1,2-oxazol-5-yl}-1H-indazol-6-yl)oxy]ethan-1-ol] |
| 0.00094 | 0.16 |  |  | COCCOc1cc2[nH]nc(-c3cc(-c4ccc(C(=O)N5CC(N6CC(F)C6)C5)cc4)no3)c2cc1F [A101, 5-fluoro-3-[3-(4-{3-fluoro-[1,3′-biazetidine]-1′-carbonyl}phenyl)-1,2-oxazol-5-yl]-6-(2-methoxyethoxy)-1H-indazole] |
| 0.0091 | 0.43 |  |  | COCCOc1cc2[nH]nc(-c3cc(-c4ccc(C(=O)N5CCC[C@@H]5C(C)(C)O)nc4)no3)c2cc1F [A109, (5-{5-[5-fluoro-6-(2-methoxy-ethoxy)-1H-indazol-3-yl]-isoxazol-3-yl}-pyridin-2-yl)-[(R)-2-(1-hydroxy-1-methyl-ethyl)-pyrrolidin-1-yl]-methanone] |
| 0.0012 | 0.12 |  |  | COCCOc1cc2[nH]nc(-c3cc(-c4ccc(C(=O)N5CCN(C)CC5)cc4)no3)c2cc1F [A36, 5-fluoro-6-(2-methoxyethoxy)-3-{3-[4-(4-methylpiperazine-1-carbonyl)phenyl]-1,2-oxazol-5-yl}-1H-indazole] |
| 0.00083 | 0.046 |  |  | COCCOc1cc2[nH]nc(-c3cc(-c4ccc(C(=O)N5CCC(N6CCOCC6)C5)cc4)no3)c2cc1F (centres unmarked) [A153, 5-fluoro-6-(2-methoxyethoxy)-3-(3-{f4-[3-(morpholin-4-yl)pyrrolidine-1l-carbonyl]phenyl}-1,2-oxazol-5-yl)-1H-indazole] |
| 0.00081 | 0.056 |  |  | COCCOc1cc2[nH]nc(-c3cc(-c4ccc(C(=O)N5C6CC5CS(=O)(=O)C6)cc4)no3)c2cc1F [A108, 6-(4-{5-[5-fluoro-6-(2-methoxyethoxy)-1H-indazol-3-yl]-1,2-oxazol-3-yl}benzoyl)-3lambda6-thia-6-azabicyclo[3.1.1]heptane-3,3-dione] |
| 0.00099 | 0.46 |  |  | COCCOc1cc2[nH]nc(-c3cc(-c4ccc(C(=O)N5CCS(=N)(=O)CC5)cc4)no3)c2cc1F [A80, 4-(4-{5-[5-fluoro-6-(2-methoxyethoxy)-1H-indazol-3-yl]-1,2-oxazol-3-yl}benzoyl)-1-imino-1lambda6-thiomorpholin-1-one] |
| 0.0071 | 0.64 |  |  | COCCOc1cc2[nH]nc(-c3cc(-c4ccc(C(=O)N5CC[C@H]5C(C)(C)O)nc4)no3)c2cc1F [A118, (5-{5-[5-fluoro-6-(2-methoxy-ethoxy)-1H-indazol-3-yl]-isoxazol-3-yl}-pyridin-2-yl)-[(S)-2-(1-hydroxy-1-methyl-ethyl)-azetidin-1-yl]-methanone] |
| 0.001 | 0.076 |  |  | [2H]C1([2H])N(C(=O)c2ccc(-c3cc(-c4n[nH]c5cc(OCCOC)c(F)cc45)on3)cc2)C([2H])([2H])C([2H])([2H])N(C2COC2)C1([2H])[2H] [A233, 5-fluoro-6-(2-methoxyethoxy)-3-(3-{4-[4-(oxetan-3-yl)(2,2,3,3,5,5,6,6-^2H8)piperazine-1-carbonyl]phenyl}-1,2-oxazol-5-yl)-1H-indazole] |
| 0.0016 | 0.18 |  |  | COCCOc1cc2[nH]nc(-c3cc(-c4ccc(C(=O)N5CCN(C)C[C@@H]5C)cc4)on3)c2cc1Cl [A10, 5-chloro-3-(5-{4-[(2S)-2,4-dimethylpiperazine-1-carbonyl]phenyl}-1,2-oxazol-3-yl)-6-(2-methoxyethoxy)-1H-indazole] |
| 0.001 | 0.047 |  |  | COCCOc1cc2[nH]nc(-c3cc(-c4ccc(C(=O)N5CC6(CCOC6)C5)cc4)no3)c2cc1F [A77, 5-fluoro-6-(2-methoxyethoxy)-3-[3-(4-{6-oxa-2-azaspiro[3.4]octane-2-carbonyl}phenyl)-1,2-oxazol-5-yl]-1H-indazole] |
| 0.00061 | 0.052 |  |  | COCCOc1cc2[nH]nc(-c3cc(-c4ccc(C5CCN(C)CC5(C)C)cc4)no3)c2cc1F (centres unmarked) [A231, 5-fluoro-6-(2-methoxy-ethoxy)-3-{3-[4-(1,3,3-trimethyl-piperidin-4-yl)-phenyl]-isoxazol-5-yl}-1H-indazole] |
| 0.00065 | 0.052 |  |  | COCCOc1cc2[nH]nc(-c3cc(-c4ccc(C(=O)N5CCOC[C@@H]5CO)cc4)no3)c2cc1Cl [A66, (4-{5-[5-chloro-6-(2-methoxy-ethoxy)-1H-indazol-3-yl]-isoxazol-3-yl}-phenyl)-((S)-3-hydroxymethyl-morpholin-4-yl)-methanone] |
| 0.0011 | 0.027 |  |  | COCCOc1cc2[nH]nc(-c3cc(-c4ccc(C(=O)N5C[C@@H]6CN(C7COC7)C[C@@H]6C5)cc4)no3)c2cc1F [A216, 3-(3-{4-[(cis)-5-(oxetan-3-yl)-octahydropyrrolo[3,4-c]pyrrole-2-carbonyl]phenyl}-1,2-oxazol-5-yl)-5-fluoro-6-(2-methoxyethoxy)-1H-indazole] |
| 0.0017 | 0.2 |  |  | COCCOc1cc2[nH]nc(-c3cc(-c4ccc(N5CC[C@@H]6[C@@H]5CCN6C)cc4)no3)c2cc1F (relative stereo) [A126, 3-(3-{4-[(trans)-4-methyl-octahydropyrrolo[3,2-b]pyrrol-1-yl]phenyl}-1,2-oxazol-5-yl)-5-fluoro-6-(2-methoxyethoxy)-1H-indazole] |
